Measurements as given in US12384808B2, “Modulators of TNF-α activity” (Forward Therapeutics, Inc., priority 2022, dated 2025).

These compounds were tested against TNFα (Homo sapiens, UniProt P01375) (assay: TNFα Induced HEK Blue Cellular Assay). Conditions: HEK Blue TNFα reporter cells, TNFα 100 pg/ml, 24 hrs at 37° C., secreted alkaline phosphatase (QUANTI-Blue) read at 620 nm; read-out: IC50 value.
Chain of TNFα (P01375 77-233 limits assumed): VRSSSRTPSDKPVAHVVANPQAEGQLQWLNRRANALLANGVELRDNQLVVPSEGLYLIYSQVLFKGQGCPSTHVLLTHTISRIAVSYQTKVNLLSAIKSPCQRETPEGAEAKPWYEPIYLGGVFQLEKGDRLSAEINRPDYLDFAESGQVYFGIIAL
Type: cell-based
Summary of the method: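 Reporter cells (10,000/well, DMEM + 10% FBS) with compound (final […] to 0.5 nM) stimulated with 100 pg/ml TNFα, 24 h at 37 °C, 5% CO2. Secreted alkaline phosphatase read at 620 nm; IC50 by 4-parameter logistic fit after background correction against stimulated/unstimulated DMSO controls.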
For `[2H]C([2H])([2H])N1C(=O)c2cccc(OC(F)F)c2[C@H]2C[C@@H]1c1nc3ccc(-c4ccc(P(C)(C)=O)c(F)c4F)cc3n12` [Example 52, (7R,14R)-1-(difluoromethoxy)-11-(4-(dimethylphosphoryl)-2,3-difluorophenyl)-6-(methyl-d3)-6,7-dihydro-7,14-methanobenzo[f]benzo[4,5]imidazo[1,2-a][1,4]diazocin-5(14H)-one], the IC50 was < 100 nM.
For `[2H]C([2H])([2H])N1C(=O)c2cccc(OC(F)F)c2[C@H]2C[C@@H]1c1nc3ccc(-c4ccc(P(C)(C)=O)cc4F)cc3n12` [Example 53, (7R,14R)-1-(difluoromethoxy)-11-(4-(dimethylphosphoryl)-2-fluorophenyl)-6-(methyl-d3)-6,7-dihydro-7,14-methanobenzo[f]benzo[4,5]imidazo[1,2-a][1,4]diazocin-5(14H)-one], the IC50 was < 100 nM.
For `[2H]C([2H])([2H])N1C(=O)c2cccc(OC(F)F)c2[C@H]2C[C@@H]1c1nc3ccc(-c4cc(F)c(P(C)(C)=O)cc4F)cc3n12` [Example 54, (7R,14R)-1-(difluoromethoxy)-11-(4-(dimethylphosphoryl)-2,5-difluorophenyl)-6-(methyl-d3)-6,7-dihydro-7,14-methanobenzo[f]benzo[4,5]imidazo[1,2-a][1,4]diazocin-5(14H)-one], the IC50 was < 100 nM.
With `CN1C(=O)c2cccc(OC(F)F)c2[C@H]2C[C@@H]1c1nc3cc(F)c(-c4ccc(P(C)(C)=O)c(F)c4F)cc3n12` [Example 55, (1R,11R)-18-(difluoromethoxy)-5-[4-(dimethylphosphoryl)-2,3-difluorophenyl]-6-fluoro-12-methyl-2,9,12-triazapentacyclo[9.8.1.0^{2,10}.0^{3,8}.0^{14,19}]icosa-3(8),4,6,9,14(19),15,17-heptaen-13-one] the IC50 was < 100 nM.
In the case of `CN1C(=O)c2cccc(OC(F)F)c2[C@H]2C[C@@H]1c1nc3ccc(-c4cc(F)c(P(C)(C)=O)cc4F)cc3n12` [Example 56, (1R,11R)-18-(difluoromethoxy)-5-[4-(dimethylphosphoryl)-2,5-difluorophenyl]-12-methyl-2,9,12-triazapentacyclo[9.8.1.0^{2,10}.0^{3,8}.0^{14,19}]icosa-3(8),4,6,9,14(19),15,17-heptaen-13-one], the IC50 is reported as < 100 nM.
For `CN1C(=O)c2cccc(OC(F)F)c2[C@H]2C[C@@H]1c1nc3cc(F)c(-c4ccc(P(C)(C)=O)c(F)c4)cc3n12` [Example 57, (1R,11R)-18-(difluoromethoxy)-5-[4-(dimethylphosphoryl)-3-fluorophenyl]-6-fluoro-12-methyl-2,9,12-triazapentacyclo[9.8.1.0^{2,10}.0^{3,8}.0^{14,19}]icosa-3(8),4,6,9,14(19),15,17-heptaen-13-one], the IC50 was < 100 nM.
For `CN1C(=O)c2cccc(OC(F)F)c2[C@H]2C[C@@H]1c1nc3cc(F)c(-c4ccc(P(C)(C)=O)cc4F)cc3n12` [Example 58, (1R,11R)-18-(difluoromethoxy)-5-[4-(dimethylphosphoryl)-2-fluorophenyl]-6-fluoro-12-methyl-2,9,12-triazapentacyclo[9.8.1.0^{2,10}.0^{3,8}.0^{14,19}]icosa-3(8),4,6,9,14(19),15,17-heptaen-13-one], the IC50 was < 100 nM.
`[2H]C([2H])([2H])N1C(=O)c2cccc(OC(F)F)c2[C@H]2C[C@@H]1c1nc3cc(F)c(-c4ccc(P(C)(C)=O)c(F)c4)cc3n12` [Example 59, (7R,14R)-1-(difluoromethoxy)-11-(4-(dimethylphosphoryl)-3-fluorophenyl)-10-fluoro-6-(methyl-d3)-6,7-dihydro-7,14-methanobenzo[f]benzo[4,5]imidazo[1,2-a][1,4]diazocin-5(14H)-one] was tested, and the IC50 was < 100 nM.
For `[2H]C([2H])([2H])N1C(=O)c2cccc(OC(F)F)c2[C@H]2C[C@@H]1c1nc3ccc(-c4cc(F)c(P(C)(C)=O)c(F)c4)cc3n12` [Example 60, (7R,14R)-1-(difluoromethoxy)-11-(4-(dimethylphosphoryl)-3,5-difluorophenyl)-6-(methyl-d3)-6,7-dihydro-7,14-methanobenzo[f]benzo[4,5]imidazo[1,2-a][1,4]diazocin-5(14H)-one], the IC50 was < 100 nM.
For `[2H]C([2H])([2H])N1C(=O)c2cccc(OC(F)F)c2[C@H]2C[C@@H]1c1nc3cc(F)c(-c4ccc(P(C)(C)=O)cc4F)cc3n12` [Example 61, (7R,14R)-1-(difluoromethoxy)-11-(4-(dimethylphosphoryl)-2-fluorophenyl)-10-fluoro-6-(methyl-d3)-6,7-dihydro-7,14-methanobenzo[f]benzo[4,5]imidazo[1,2-a][1,4]diazocin-5(14H)-one], the IC50 was < 100 nM.
With `CN1C(=O)c2cccc(OC(F)F)c2[C@H]2C[C@@H]1c1nc3ccc(-c4c(F)cc(P(C)(C)=O)cc4F)cc3n12` [Example 62, (1R,11R)-18-(difluoromethoxy)-5-[4-(dimethylphosphoryl)-2,6-difluorophenyl]-12-methyl-2,9,12-triazapentacyclo[9.8.1.0^{2,10}.0^{3,8}.0^{14,19}]icosa-3(8),4,6,9,14(19),15,17-heptaen-13-one] the IC50 was < 100 nM.
With `[2H]C([2H])([2H])N1C(=O)c2cccc(OC(F)F)c2[C@H]2C[C@@H]1c1nc3ccc(-c4c(F)cc(P(C)(C)=O)cc4F)cc3n12` [Example 63, (7R,14R)-1-(difluoromethoxy)-11-(4-(dimethylphosphoryl)-2,6-difluorophenyl)-6-(methyl-d3)-6,7-dihydro-7,14-methanobenzo[f]benzo[4,5]imidazo[1,2-a][1,4]diazocin-5(14H)-one] the IC50 was < 100 nM.
Compound `[2H]C([2H])([2H])N1C(=O)c2cccc(OC(F)F)c2[C@H]2C[C@@H]1c1nc3cc(F)c(-c4ccc(P(C)(C)=O)cc4)cc3n12` [Example 64, (7R,14R)-1-(difluoromethoxy)-11-(4-(dimethylphosphoryl)phenyl)-10-fluoro-6-(methyl-d3)-6,7-dihydro-7,14-methanobenzo[f]benzo[4,5]imidazo[1,2-a][1,4]diazocin-5(14H)-one] has an IC50 of 100 to 1000 nM.
`[2H]C([2H])([2H])N1C(=O)c2cccc(OC(F)F)c2[C@H]2C[C@@H]1c1nc3ccc(-c4ccc(P(C)(C)=O)cc4)cc3n12` [Example 65, (7R,14R)-1-(difluoromethoxy)-11-(4-(dimethylphosphoryl)phenyl)-6-(methyl-d3)-6,7-dihydro-7,14-methanobenzo[f]benzo[4,5]imidazo[1,2-a][1,4]diazocin-5(14H)-one] was tested, and the IC50 was < 100 nM.
With `CP(C)(=O)c1ccc(-c2cc3c(cc2F)nc2n3[C@@H]3C[C@H]2NC(=O)c2cccc(OC(F)F)c23)cc1F` [Example 66, (7R,14R)-1-(difluoromethoxy)-11-(4-(dimethylphosphoryl)-3-fluorophenyl)-10-fluoro-6,7-dihydro-7,14-methanobenzo[f]benzo[4,5]imidazo[1,2-a][1,4]diazocin-5(14H)-one] the IC50 was < 100 nM.
With `[2H]C([2H])([2H])N1C(=O)c2cccc(OC(F)F)c2[C@H]2C[C@@H]1c1nc3ccc(-c4ccc(CP(C)(C)=O)cc4F)cc3n12` [Example 67, (7R,14R)-1-(difluoromethoxy)-11-(4-((dimethylphosphoryl)methyl)-2-fluorophenyl)-6-(methyl-d3)-6,7-dihydro-7,14-methanobenzo[f]benzo[4,5]imidazo[1,2-a][1,4]diazocin-5(14H)-one] the IC50 was < 100 nM.
In the case of `[2H]C([2H])([2H])N1C(=O)c2cccc(OC(F)F)c2[C@H]2C[C@@H]1c1nc3ccc(-c4ccc(CP(C)(C)=O)c(F)c4)cc3n12` [Example 68, (7R,14R)-1-(difluoromethoxy)-11-(4-((dimethylphosphoryl)methyl)-3-fluorophenyl)-6-(methyl-d3)-6,7-dihydro-7,14-methanobenzo[f]benzo[4,5]imidazo[1,2-a][1,4]diazocin-5(14H)-one], the IC50 is reported as < 100 nM.
With `[2H]C([2H])([2H])N1C(=O)c2cccc(OC(F)F)c2[C@H]2C[C@@H]1c1nc3ccc(-c4cc(F)c(CP(C)(C)=O)c(F)c4)cc3n12` [Example 69, (7R,14R)-1-(difluoromethoxy)-11-(4-((dimethylphosphoryl)methyl)-3,5-difluorophenyl)-6-(methyl-d3)-6,7-dihydro-7,14-methanobenzo[f]benzo[4,5]imidazo[1,2-a][1,4]diazocin-5(14H)-one] the IC50 was < 100 nM.
For `[2H]C([2H])([2H])N1C(=O)c2cccc(OC(F)F)c2[C@H]2C[C@@H]1c1nc3ccc(-c4ccc(CP(C)(C)=O)cc4)cc3n12` [Example 70, (7R,14R)-1-(difluoromethoxy)-11-(4-((dimethylphosphoryl)methyl)phenyl)-6-(methyl-d3)-6,7-dihydro-7,14-methanobenzo[f]benzo[4,5]imidazo[1,2-a][1,4]diazocin-5(14H)-one], the IC50 was < 100 nM.
`[2H]C([2H])([2H])N1C(=O)c2cccc(O)c2[C@H]2C[C@@H]1c1nc3ccc(-c4cc(F)c(P(C)(C)=O)cc4F)cc3n12` [Example 71, (7R,14R)-11-(4-(dimethylphosphoryl)-2,5-difluorophenyl)-1-hydroxy-6-(methyl-d3)-6,7-dihydro-7,14-methanobenzo[f]benzo[4,5]imidazo[1,2-a][1,4]diazocin-5(14H)-one] was tested, and the IC50 was 10000 to 30000 nM.
For `CP(C)(=O)Cc1ccc(-c2ccc3nc4n(c3c2)[C@@H]2C[C@H]4NC(=O)c3cccc(OC(F)F)c32)cc1F` [Example 72, (7R,14R)-1-(difluoromethoxy)-11-(4-((dimethylphosphoryl)methyl)-3-fluorophenyl)-6,7-dihydro-7,14-methanobenzo[f]benzo[4,5]imidazo[1,2-a][1,4]diazocin-5(14H)-one], the IC50 was < 100 nM.
With `CN1C(=O)c2cccc(OC(F)F)c2[C@H]2C[C@@H]1c1nc3ccc(-c4cc(F)c(CP(C)(C)=O)cc4F)cc3n12` [Example 73, (7R,14R)-1-(difluoromethoxy)-11-(4-((dimethylphosphoryl)methyl)-2,5-difluorophenyl)-6-methyl-6,7-dihydro-7,14-methanobenzo[f]benzo[4,5]imidazo[1,2-a][1,4]diazocin-5(14H)-one] the IC50 was < 100 nM.
